Data on eight compounds can be found in ChEMBL document CHEMBL1127987, “()11-Amino-2,6-dimethyl-1,2,3,4-tetrahydro-6H-quinindolin-1-one, a novel gabaA modulator with potential anxiolytic activity” (Bioorg Med Chem Lett, 1994).

SMILES strings stand for the structures. A value given as a limit tells only on which side of the number the result lay.

Test [1] deals with Rattus norvegicus. The test is described as follows: Punished responding phase in Geller-Seifter test was determined at 2 hr post-dose of 20 mg/Kg p.o. Type of test: functional.
The species entered for test [2] is Rattus norvegicus. As to the kind of experiment: Minimum effective peroral dose in Geller-Seifter paradigm. Format: functional. Conditions: po, read-out: MED.
Test [3] concerns Rattus norvegicus. The test is described as follows: Punished responding phase in Geller-Seifter test was determined at 1 hr post-dose of 20 mg/Kg p.o. Format: functional.
The test system of test [4] is Rattus norvegicus. As to the kind of experiment: Punished responding phase in Geller-Seifter test was determined at 1 hr post-dose of 100 mg/Kg p.o. Format: functional.
The test system of test [5] is Rattus norvegicus. The test is described as follows: Number of animals responding out of those tested (Nr/N) in Geller-Seifter test was determined at 1 hr post-dose of 5 mg/Kg p.o. (Animals tested 6). Format: functional.
Test [6] concerns Rattus norvegicus. The test is described as follows: Punished responding phase in Geller-Seifter test was determined at 2 hr post-dose of 50 mg/Kg p.o. Type of test: functional.
The test system of test [7] is Rattus norvegicus. The test is described as follows: Punished responding phase in Geller-Seifter test was determined at 1 hr post-dose of 50 mg/Kg p.o. Type of test: functional.
In test [8] the test system is Rattus norvegicus. As to the kind of experiment: Punished responding phase in Geller-Seifter test was determined at 1 hr post-dose of 10 mg/Kg p.o. Format: functional.
Test [9] relates to Rattus norvegicus. The test is described as follows: Number of animals responding out of those tested (Nr/N) in Geller-Seifter test was determined at 1 hr post-dose of 100 mg/Kg p.o. (Animals tested 16). Type of test: functional.
Test [10] has as its system Rattus norvegicus. As to the kind of experiment: Number of animals responding out of those tested (Nr/N) in Geller-Seifter test was determined at 1 hr post-dose of 20 mg/Kg p.o. (Animals tested 16). Format: functional.
Test [11] concerns Rattus norvegicus. As to the kind of experiment: Number of animals responding out of those tested (Nr/N) in Geller-Seifter test was determined at 1 hr post-dose of 10 mg/Kg p.o. (Animals tested 15). Type of test: functional.
For test [12], the target named is GABA-A receptor; anion channel. As to the kind of experiment: Inhibition of [35S]TBPS binding to Gamma-aminobutyric acid A (GABA-A) receptor of rat brain in the presence of 5 uM GABA.
Test [13] deals with Rattus norvegicus. The test is described as follows: Number of animals responding out of those tested (Nr/N) in Geller-Seifter test was determined at 2 hr post-dose of 20 mg/Kg p.o. (Animals tested 16). Format: functional.
The subject of test [14] is Rattus norvegicus. The test is described as follows: Number of animals responding out of those tested (Nr/N) in Geller-Seifter test was determined at 2 hr post-dose of 50 mg/Kg p.o. (Animals tested 16). Type of test: functional.
For test [15], the target named is GABA-A receptor; anion channel. As to the kind of experiment: Displacement of [3H]flunitrazepam from rat cerebral cortex. Format: tissue-based. (In general: Loss of bound radioactivity is the signal in a displacement assay; it reports binding, not function.)
The subject of test [16] is Rattus norvegicus. The test is described as follows: Punished responding phase in Geller-Seifter test was determined at 1 hr post-dose of 5 mg/Kg p.o. Type of test: functional.
The subject of test [17] is Rattus norvegicus. The test is described as follows: Number of animals responding out of those tested (Nr/N) in Geller-Seifter test was determined at 1 hr post-dose of 50 mg/Kg p.o. (Animals tested 16). Format: functional.
The subject of test [18] is GABA-A receptor; anion channel. As to the kind of experiment: Displacement of [3H]flunitrazepam from rat cerebral cortex (Insoluble). Type of test: tissue-based.
Test [19] deals with Rattus norvegicus. The test is described as follows: Punished responding phase in Geller-Seifter test was determined at 2 hr post-dose of 5 mg/Kg p.o. Format: functional.
For test [20], the system named is Rattus norvegicus. The test is described as follows: Number of animals responding out of those tested (Nr/N) in Geller-Seifter test was determined at 1 hr post-dose of 5 mg/Kg p.o. (Animals tested 8). Type of test: functional.
The test system of test [21] is Rattus norvegicus. As to the kind of experiment: Number of animals responding out of those tested (Nr/N) in Geller-Seifter test was determined at 2 hr post-dose of 5 mg/Kg p.o. (Animals tested 16). Format: functional.
The target of test [22] is T1, GABA-A receptor; anion channel (Rattus norvegicus) (UniProt O09028+P15431+P18506+P18508+P19969+P20236+P23574+P23576+P28471+P28473+P30191+P62813+P63079+P63138+Q91ZM7+Q9ES14). Conditions: 0.01 uM.
Description: Inhibition of [35S]TBPS binding to Gamma-aminobutyric acid A (GABA-A) receptor of rat brain in the presence of 5 uM GABA at 0.01 uM
The target of test [23] is T1, GABA-A receptor; anion channel (Rattus norvegicus). To be noted: Cerebral cortex, 0.12 uM.
Description: Inhibition of [3H]Flunitrazepam binding to rat cerebral cortex at 0.12 uM
Test [24] concerns Rattus norvegicus. The test is described as follows: Number of animals responding out of those tested (Nr/N) in Geller-Seifter test was determined at 1 hr post-dose of 20 mg/Kg p.o. (Animals tested 6). Format: functional.
The subject of test [25] is Rattus norvegicus. As to the kind of experiment: Number of animals responding out of those tested (Nr/N) in Geller-Seifter test was determined at 2 hr post-dose of 20 mg/Kg p.o. (Animals tested 8). Type of test: functional.
For test [26], the system named is Rattus norvegicus. The test is described as follows: Punished responding phase in Geller-Seifter test was determined at 2 hr post-dose of 100 mg/Kg p.o. Type of test: functional.
Test [27] relates to Rattus norvegicus. The test is described as follows: Number of animals responding out of those tested (Nr/N) in Geller-Seifter test was determined at 1 hr post-dose of 50 mg/Kg p.o. (Animals tested 6). Format: functional.
Test [28] concerns Rattus norvegicus. The test is described as follows: Number of animals responding out of those tested (Nr/N) in Geller-Seifter test was determined at 1 hr post-dose of 100 mg/Kg p.o. (Animals tested 6). Format: functional.
The subject of test [29] is Rattus norvegicus. As to the kind of experiment: Number of animals responding out of those tested (Nr/N) in Geller-Seifter test was determined at 1 hr post-dose of 5 mg/Kg p.o. (Animals tested 14). Format: functional.
Test [30] deals with Rattus norvegicus. The test is described as follows: Punished responding phase in Geller-Seifter test was determined at 2 hr post-dose of 10 mg/Kg p.o. Type of test: functional.
The subject of test [31] is Rattus norvegicus. The test is described as follows: Number of animals responding out of those tested (Nr/N) in Geller-Seifter test was determined at 2 hr post-dose of 50 mg/Kg p.o. (Animals tested 6). Format: functional.
Test [32] relates to Rattus norvegicus. The test is described as follows: Number of animals responding out of those tested (Nr/N) in Geller-Seifter test was determined at 2 hr post-dose of 100 mg/Kg p.o. (Animals tested 6). Type of test: functional.
Test [33] deals with Rattus norvegicus. The test is described as follows: Number of animals responding out of those tested (Nr/N) in Geller-Seifter test was determined at 1 hr post-dose of 10 mg/Kg p.o. (Animals tested 6). Format: functional.
In test [34] the test system is Rattus norvegicus. As to the kind of experiment: Number of animals responding out of those tested (Nr/N) in Geller-Seifter test was determined at 2 hr post-dose of 10 mg/Kg p.o. (Animals tested 14). Type of test: functional.
Test [35] deals with Rattus norvegicus. The test is described as follows: Punished responding phase in Geller-Seifter test was determined at 1 hr post-dose of 2.5 mg/Kg p.o. Type of test: functional.
For test [36], the system named is Rattus norvegicus. As to the kind of experiment: Number of animals responding out of those tested (Nr/N) in Geller-Seifter test was determined at 2 hr post-dose of 20 mg/Kg p.o. (Animals tested 6). Format: functional.
In test [37] the test system is Rattus norvegicus. As to the kind of experiment: Number of animals responding out of those tested (Nr/N) in Geller-Seifter test was determined at 1 hr post-dose of 2.5 mg/Kg p.o. (Animals tested 6). Format: functional.

In the case of `CCOC(=O)c1c(C)nc2c(c1N)c1ccccc1n2C`, the Change in test [1] is listed as 6%; in [3] it was 22%; in [4], 122%; in test [6], 4%; in test [7], 63%; in test [8], 20%. For the same compound, the Change in test [16] worked out at 2%. Moreover, in test [2], the minimal effective dose came out at 10 mg/kg. For the same compound, the Nr/N was found to be 5 in [5]; 14 in test [9]; 12 in test [10]; 10 in test [11]; 6 in test [13]; 6 in test [14]. Moreover, the Nr/N in test [17] is on record as 15. In addition, the figures for the IC50 in test [12] (read-out: IC50) and in test [15] were 2000 nM and above 100000 nM, respectively.
Take `CCC1CCc2nc3c(c(N)c2C1=O)c1ccccc1n3C` (centres undefined): the minimal effective dose in test [2] is 20 mg/kg. Besides, in test [12] (read-out: IC50), the half-inhibitory concentration (IC50) (commonly the concentration at which inhibition is half-maximal) was 940 nM.
Consider `Cn1c2ccccc2c2c(N)c3c(nc21)CCOC3=O`, for which the minimal effective dose in [2] is above 20 mg/kg. Moreover, the IC50 result in [18] and in test [12] was “Insoluble” in each case.
Turning to `CCCC(=O)c1c(C)nc2c(c1N)c1ccccc1n2C`, the minimal effective dose in [2] amounted to 20 mg/kg. The concentration for half-maximal inhibition (IC50) in [12] (read-out: IC50) is 2300 nM.
`CN1C(=O)CN=C(c2ccccc2)c2cc(Cl)ccc21` [DIAZEPAM]: the minimal effective dose in test [2] turned out to be 2.5 mg/kg. Moreover, the Change came out at 38% in test [19] and 57% in test [16]. Further, the Nr/N in test [20] is reported as 6; in test [21], 8. Further, the inhibition – broadly, how much of the control response was suppressed – was below 50% in test [22] and 100% in test [23].
`Cc1nc2c(c(N)c1C(=O)O)c1ccccc1n2C`: the minimal effective dose in test [2] was above 50 mg/kg. Further, the concentration for half-maximal inhibition (IC50) in test [12] (read-out: IC50) and in test [15] was above 100000 nM in each case.
For `CCC(=O)c1c(C)nc2c(c1N)c1ccccc1n2C`, the Change came out at 28% in [1] and 41% in test [3]. Moreover, the minimal effective dose in test [2] is 20 mg/kg. Besides, the Nr/N in test [24] and in test [25] was 5 throughout. The IC50 was 1600 nM in test [12] (read-out: IC50) and above 100000 nM in test [15].
Regarding `CC1CCc2nc3c(c(N)c2C1=O)c1ccccc1n3C` (centres undefined), the Change in test [1] is listed as 36%; in test [3] it was 52%; in [4] it was 137%; in test [26], 141%; in test [30], 22%; in test [6], 62%. The Change in [7] came to 146%; in test [8] it was 43%; in test [35], 0%; in [16], 19%. The minimal effective dose in [2] was 5 mg/kg. Further, the Nr/N in test [27] was 5; in test [28] it was 6; in test [29], 8; in [31] it was 6; in [32] it was 6; in test [33], 5. Moreover, the Nr/N in test [24] worked out at 5; in test [34], 7; in test [36], 6; in test [37] it was 0. Further, the IC50 in test [12] (read-out: IC50) was 950 nM; in test [15], above 100000 nM.
